Experimental data: patent US20200323897A1, “METHODS FOR DISTRIBUTING AGENTS TO AREAS OF BRAIN” (Medtronic, Inc., priority 2010, published 2020)

Assays:
[1] = Intrathecal (L2) infusion at low flow rates, distribution tracked by MRI; type: in vivo, rhesus monkey
Description: (§1) CADD ambulatory infusion pumps were used to deliver gadolinium (Gd) labeled diethylene triamine pentaacetic acid (DTPA) or Gd-labeled albumin to rhesus monkeys, either intrathecally or intracerebroventricularly. Distribution of the Gd-labeled agents was tracked in-life via magnetic resonance imaging (MRI).
(§2) For the Gd-DTPA studies, various concentrations of the Gd-DTPA were administered. The Gd-DTPA was administered intrathecally at L2 or intracerebroventricularly via a lateral ventricle at a variety of flow rates. Within a given monkey various flow rates were tested, followed by a washout period with phosphate buffered saline (PBS). An example study design that was used is presented below in Table 2:
While not detectable at lower concentrations, it is believed that the distribution of the lower concentration agent was similar to that observed at the 70 mg/ml concentration at similar flow rates. […] FIG. 6A is an MRI image of the same monkey prior to infusion of Gd-DTPA.
For the Gd-albumin studies, various concentrations of the Gd-albumin were administered intrathecally at L2 at various flow rates. FIGS. 9A-E are MRI images of rhesus monkeys receiving intrathecal Gd-albumin.

[2] = Infusion into the CSF at low flow rates (IT or ICV), overall statements on distribution; type: in vivo, rhesus monkey
Text: as §1

[3] = Intracerebroventricular (lateral ventricle) infusion at low flow rates, distribution tracked by MRI; type: in vivo, rhesus monkey; conditions: ICV
Description: as §1, §2
Referring now to FIGS. 8A-F, MM images of a rhesus monkey receiving various concentrations of Gd-DPTA intracerebroventricularly at various flow rates are shown. FIG. 8A is an MRI image of a monkey receiving PBS prior to infusion of the Gd-DPTA. FIG. 8B is an MM image of a monkey receiving 486 mg/ml at 0.048 ml/day. FIG. 8C is an MRI image of a monkey receiving 280 mg/ml at 0.1 ml/day. FIG. 8D is an MRI image of a monkey receiving 70 mg/ml at 0.4 ml/day. FIG. 8E is an MRI image of a monkey receiving 35 mg/ml at 0.8 ml/day. FIG. 8F is an MM image of a monkey receiving 22 mg/ml at 1.2 ml/day. […] Accordingly, broad distribution appears to be achievable at low flow rates, regardless of the CSF site of administration.
Referring now to FIGS. 11A-F, MRI images of a rhesus monkey receiving various concentrations of Gd-albumin intracerebroventricularly at various flow rates are shown. FIG. 11A is an MM image of a monkey receiving PBS prior to infusion of the Gd-albumin. FIG. 11B is an MM image of a monkey receiving 100 mg/ml at 0.1 ml/day at one day of infusion. FIG. 11C is an MRI image of a monkey receiving 100 mg/ml at 0.4 ml/day at one day of infusion. FIG. 11D is an MRI image of a monkey receiving 100 mg/ml at 0.4 ml/day at three days of infusion. FIG. 11E is an MRI image of a monkey receiving 100 mg/ml at 0.8 ml/day at one day of infusion. FIG. 11F is an MRI image of a monkey receiving 64 mg/ml at 1.2 ml/day at one day of infusion.

[4] = humans, intrathecal, constant rate of 0.5 ml/day; cited from earlier work

| SMILES | uptake by brain tissue (FIG. 7B) ([1]; IT L2, 70 mg/ml, 2.4 ml/day) | distribution around the spinal cord (FIG. 7D) ([1]; IT L2, 70 mg/ml, 2.4 ml/day, steady state) | distribution in the CSF (FIG. 6) ([1]; IT L2, all flow rates of about 0.4 ml/day or greater) | distribution in the CSF ([1]; IT, 0.1 mL/day) | distribution in the CSF ([1]; IT, 0.4 mL/day, 70 mg/ml) | detectability by MRI ([1]; IT, 0.4 mL/day, lower concentrations (17.5 mg/ml, 5.8 mg/ml, 2.9 mg/ml)) | MRI signal intensity ([1]; IT, 2.4 ml/day (100 microliters per hour)) | distribution following infusion into the CSF [2] | steady state distribution in the CSF ([3]; 0.048 mL/day) | steady state distribution in the CSF ([3]; 0.1 mL/day) | distribution within the CSF ([3]; 0.1 mL/day for a period of 6 hours) | distribution in the CSF (FIG. 8) ([3]; flow rates of about 0.05 ml/day or greater, 22-486 mg/ml) | supraspinal side effects [4] |
| --- | --- | --- | --- | --- | --- | --- | --- | --- | --- | --- | --- | --- | --- |
| O=C([O-])CN(CCN(CC(=O)[O-])CC(=O)O)CCN(CC(=O)[O-])CC(=O)O.[Gd+3] [Gd-DTPA, gadolinium (Gd) labeled diethylene triamine pentaacetic acid (DTPA)] | appears to be taken up by the parenchymal tissue of the brain | distributed in a circumferential manner around the intrathecal space | broad distribution was observed | confined the molecule in the IT space | broadly distributed throughout the CSF | not appreciably detectable by MRI | signal was most intense | broadly distributed | evident in the CSF compartments in and around the brain, but not the spinal cord | complete CSF coverage | distributed broadly throughout the CSF in and around the brain and spinal cord | broadly distributed in the CSF, including in the intrathecal space | – |
| NCC(CC(=O)O)c1ccc(Cl)cc1 (centres unmarked) [baclofen] | – | – | – | – | – | – | – | – | – | – | – | – | do not appear to suffer from any supraspinal side effects |
| CN1CC[C@]23c4c5ccc(O)c4O[C@H]2[C@@H](O)C=C[C@H]3[C@H]1C5 [morphine] | – | – | – | – | – | – | – | – | – | – | – | – | do not appear to suffer from any supraspinal side effects |
